System: 519858-162-T-J1-PDC complex spheroid growth, % test/control
Assay: Anticancer human tumor 519858-162-T-J1-PDC patient-derived colon adenocarcinoma cell line growth inhibition [Asc]
Conditions: for IC50: curve of first compound; for viability, T/C: stronger effect = lower value
Outline: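 Complex spheroids combining tumor cells with HUVEC endothelial cells and human MSCs, at 37 degrees C, 5% CO2; agents tested alone or combined, half-log dilutions from at or near clinical Cmax, or 10 microM if Cmax unknown.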
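Also: seven day drug exposure begun three days after spheroid seeding.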
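For viability, T/C in this document: 100% = DMSO vehicle wells and lower values mean less viable spheroid.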

**Q.** `NC1CCC(NC2CC2c2ccccc2)CC1` (configuration not stated) + Cc1c(S(C)(=O)=O)c(-c2cc(F)cc(N3CCN(c4ccc(NS(=O)(=O)c5ccc(NC(CCN6CCC(C(=O)OCCCP(=O)(O)O)CC6)CSc6ccccc6)c(S(=O)(=O)C(F)(F)F)c5)cc4)CC3)c2)c(-c2ccc(Cl)cc2)n1C(C)C was tested. Which IC50 (second compound 0.0316 µM) did it give?
**A.** The IC50 was greater than 100 nM.

**Q.** And the IC50 (second compound 0.1 µM)?
**A.** Its IC50 is greater than 100 nM.

**Q.** What about the IC50 (second compound 0.316 µM) of the same compound?
**A.** The IC50 was greater than 100 nM.

**Q.** And the IC50 (second compound 1 µM)?
**A.** Its IC50 is greater than 100 nM.

**Q.** What about the IC50 (second compound 3.16 µM) of the same compound?
**A.** The IC50 was greater than 100 nM.

**Q.** And the IC50 (second compound 10 µM)?
**A.** Its IC50 is greater than 100 nM.

**Q.** And the viability, T/C (second compound 0.0316 µM, first compound 0.000316 µM)?
**A.** The viability, T/C was 106%.

**Q.** What about the viability, T/C (second compound 0.0316 µM, first compound 0.001 µM) of the same compound?
**A.** Its viability, T/C is 128%.

**Q.** What about the viability, T/C (second compound 0.0316 µM, first compound 0.00316 µM) of the same compound?
**A.** The viability, T/C was 116%.

**Q.** And the viability, T/C (second compound 0.0316 µM, first compound 0.01 µM)?
**A.** Its viability, T/C is 137%.

**Q.** What about the viability, T/C (second compound 0.0316 µM, first compound 0.0316 µM) of the same compound?
**A.** Its viability, T/C is 115%.

**Q.** And the viability, T/C (second compound 0.0316 µM, first compound 0.1 µM)?
**A.** Its viability, T/C is 70.6%.

**Q.** And the viability, T/C (second compound 0.1 µM, first compound 0.000316 µM)?
**A.** Its viability, T/C is 134%.

**Q.** And the viability, T/C (second compound 0.1 µM, first compound 0.001 µM)?
**A.** The viability, T/C was 122%.

**Q.** What about the viability, T/C (second compound 0.1 µM, first compound 0.00316 µM) of the same compound?
**A.** Its viability, T/C is 92.7%.

**Q.** And the viability, T/C (second compound 0.1 µM, first compound 0.01 µM)?
**A.** Its viability, T/C is 94.8%.

**Q.** What about the viability, T/C (second compound 0.1 µM, first compound 0.0316 µM) of the same compound?
**A.** Its viability, T/C is 79.9%.

**Q.** And the viability, T/C (second compound 0.1 µM, first compound 0.1 µM)?
**A.** The viability, T/C was 98.3%.

**Q.** And the viability, T/C (second compound 0.316 µM, first compound 0.000316 µM)?
**A.** The viability, T/C was 65.3%.

**Q.** And the viability, T/C (second compound 0.316 µM, first compound 0.001 µM)?
**A.** The viability, T/C was 109%.

**Q.** What about the viability, T/C (second compound 0.316 µM, first compound 0.00316 µM) of the same compound?
**A.** The viability, T/C was 142%.

**Q.** And the viability, T/C (second compound 0.316 µM, first compound 0.01 µM)?
**A.** The viability, T/C was 94%.

**Q.** And the viability, T/C (second compound 0.316 µM, first compound 0.0316 µM)?
**A.** The viability, T/C was 85.5%.

**Q.** What about the viability, T/C (second compound 0.316 µM, first compound 0.1 µM) of the same compound?
**A.** The viability, T/C was 107%.

**Q.** And the viability, T/C (second compound 1 µM, first compound 0.000316 µM)?
**A.** The viability, T/C was 96.3%.

**Q.** And the viability, T/C (second compound 1 µM, first compound 0.001 µM)?
**A.** Its viability, T/C is 74.7%.

**Q.** What about the viability, T/C (second compound 1 µM, first compound 0.00316 µM) of the same compound?
**A.** The viability, T/C was 99.4%.

**Q.** What about the viability, T/C (second compound 1 µM, first compound 0.01 µM) of the same compound?
**A.** Its viability, T/C is 60.3%.

**Q.** What about the viability, T/C (second compound 1 µM, first compound 0.0316 µM) of the same compound?
**A.** Its viability, T/C is 134%.

**Q.** What about the viability, T/C (second compound 1 µM, first compound 0.1 µM) of the same compound?
**A.** The viability, T/C was 77.9%.

**Q.** And the viability, T/C (second compound 3.16 µM, first compound 0.000316 µM)?
**A.** The viability, T/C was 72.6%.

**Q.** What about the viability, T/C (second compound 3.16 µM, first compound 0.001 µM) of the same compound?
**A.** Its viability, T/C is 113%.

**Q.** And the viability, T/C (second compound 3.16 µM, first compound 0.00316 µM)?
**A.** The viability, T/C was 97.3%.

**Q.** And the viability, T/C (second compound 3.16 µM, first compound 0.01 µM)?
**A.** The viability, T/C was 83.6%.

**Q.** And the viability, T/C (second compound 3.16 µM, first compound 0.0316 µM)?
**A.** The viability, T/C was 115%.

**Q.** And the viability, T/C (second compound 3.16 µM, first compound 0.1 µM)?
**A.** Its viability, T/C is 116%.

**Q.** And the viability, T/C (second compound 10 µM, first compound 0.000316 µM)?
**A.** The viability, T/C was 69.7%.

**Q.** What about the viability, T/C (second compound 10 µM, first compound 0.001 µM) of the same compound?
**A.** The viability, T/C was 79%.

**Q.** And the viability, T/C (second compound 10 µM, first compound 0.00316 µM)?
**A.** Its viability, T/C is 60.6%.

**Q.** And the viability, T/C (second compound 10 µM, first compound 0.01 µM)?
**A.** The viability, T/C was 77.1%.

**Q.** And the viability, T/C (second compound 10 µM, first compound 0.0316 µM)?
**A.** The viability, T/C was 55.4%.

**Q.** What about the viability, T/C (second compound 10 µM, first compound 0.1 µM) of the same compound?
**A.** The viability, T/C was 69.9%.

Source: PubChem BioAssay AID1963421 (Molecular Pharmacology Branch, DTP, NCI, 2024)
